Data reported in patent US7196110B2, “N-substituted tricyclic 3-aminopyrazoles as inhibitors for the treatment of cell proliferative disorders” (Janssen Phamaceutica N.V., priority 2002, dated 2007).

Target: T1, PDGF-receptor beta enzyme comprising the tyrosine kinase domain (Homo sapiens, UniProt P09619)
T1 construct: from amino acid 545 to 1106 of GenBank Access NO: AAA36427
Assay: Inhibition of PDGF-receptor kinase activity (cell-free, PLC1 peptide, 33P Flashplate)
Type: biochemical
Conditions: PDGF-R kinase activity; for inhibition at 10 µM: compound at 10 uM, read-out: Percent Inhibition @ 10 uM; for IC50: read-out: IC50
Method in brief: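 The IC50 is the inhibitor level halving kinase activity relative to inhibitor-free wells, measured as 33P captured on a streptavidin-bound biotin-PLC1 peptide. The reaction ran 60 min at 30 °C in pH 8 Tris buffer with 1 mM DTT, 5 μM ATP and the 545–1106 kinase-domain enzyme.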

T1 sequence (P09619 545-1106): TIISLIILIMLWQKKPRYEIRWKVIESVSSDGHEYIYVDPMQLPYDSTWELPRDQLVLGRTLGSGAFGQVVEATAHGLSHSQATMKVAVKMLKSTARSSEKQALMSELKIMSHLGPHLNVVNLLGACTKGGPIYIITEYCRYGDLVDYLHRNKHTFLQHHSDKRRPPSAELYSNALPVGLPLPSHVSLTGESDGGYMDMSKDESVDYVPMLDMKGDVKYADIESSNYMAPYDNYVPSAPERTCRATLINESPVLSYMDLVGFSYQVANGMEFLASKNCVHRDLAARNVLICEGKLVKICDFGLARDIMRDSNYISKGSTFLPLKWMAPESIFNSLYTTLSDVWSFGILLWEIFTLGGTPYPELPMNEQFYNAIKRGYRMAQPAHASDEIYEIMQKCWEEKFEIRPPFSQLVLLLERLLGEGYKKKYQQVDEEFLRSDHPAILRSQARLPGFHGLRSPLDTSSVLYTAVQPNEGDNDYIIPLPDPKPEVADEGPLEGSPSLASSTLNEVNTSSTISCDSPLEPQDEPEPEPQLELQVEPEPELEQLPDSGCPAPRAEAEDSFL

SMILES	inhibition at 10 µM [%]	IC50 [nM]
COc1cc2c(cc1OC)C(C)(C)c1c-2n[nH]c1Nc1cccc(Br)c1 [Compound 485, (3-Bromo-phenyl)-(6,7-dimethoxy-4,4-dimethyl-2,4-dihydro-indeno[1,2-c]pyrazol-3-yl)-amine]	32	59000
COc1cc2c(cc1OC)C(C)(C)c1c-2n[nH]c1Nc1cccc(Cl)c1 [Compound 486, (3-Chloro-phenyl)-(6,7-dimethoxy-4,4-dimethyl-2,4-dihydro-indeno[1,2-c]pyrazol-3-yl)-amine]	34.5	15800
COc1cc2c(cc1OC)C(C)(C)c1c-2n[nH]c1Nc1cccc(F)c1 [Compound 487, (6,7-Dimethoxy-4,4-dimethyl-2,4-dihydro-indeno[1,2-c]pyrazol-3-yl)-(3-fluoro-phenyl)-amine]	43	37500
COc1cccc(Nc2[nH]nc3c2C(C)(C)c2cc(OC)c(OC)cc2-3)c1 [Compound 488, (6,7-Dimethoxy-4,4-dimethyl-2,4-dihydro-indeno[1,2-c]pyrazol-3-yl)-(3-methoxy-phenyl)-amine]	33.5	39300
CCOc1cccc(Nc2[nH]nc3c2C(C)(C)c2cc(OC)c(OC)cc2-3)c1 [Compound 489, (6,7-Dimethoxy-4,4-dimethyl-2,4-dihydro-indeno[1,2-c]pyrazol-3-yl)-(3-ethoxy-phenyl)-amine]	25.5	
CCCC(=O)OCn1nc2c(c1Nc1cccc(F)c1)Cc1cc(OC)c(OC)cc1-2 [Compound 491, Butyric acid 3-(3-fluoro-phenylamino)-6,7-dimethoxy-4H-indeno[1,2-c]pyrazol-2-ylmethyl ester]	92	314
COc1cc2c(cc1OC)-c1c(c(Nc3cccc(F)c3)nn1C(=O)c1ccc(F)cc1)C2 [Compound 492, (4-Fluoro-phenyl)-[3-(3-fluoro-phenylamino)-6,7-dimethoxy-4H-indenol[1,2-c]pyrazol-1-yl]-methanone]	78	472
COc1cc2c(cc1OC)-c1nn(COC(C)=O)c(Nc3cccc(F)c3)c1C2 [Compound 497, Acetic acid 3-(3-fluoro-phenylamino)-6,7-dimethoxy-4H-indeno[1,2-c]pyrazol-2-ylmethyl ester]	97	77.7
COc1cc2c(cc1OC)-c1c(c(Nc3cccc(F)c3)nn1Cc1ccc(OC(C)=O)cc1)C2 [Compound 498, Acetic acid 4-[3-(3-fluoro-phenylamino)-6,7-dimethoxy-4H-indeno[1,2-c]pyrazol-1-ylmethyl]-phenyl ester]	51.5	8330
COc1cc2c(cc1OC)-c1nn(Cc3ccc(OC(C)=O)cc3)c(Nc3cccc(F)c3)c1C2 [Compound 499, Acetic acid 4-[3-(3-fluoro-phenylamino)-6,7-dimethoxy-4H-indeno[1,2-c]pyrazol-2-ylmethyl]-phenyl ester]	87	1740
COc1cc2c(cc1OC)-c1c(c(Nc3cccc(F)c3)nn1C(=O)Oc1ccc(F)cc1)C2 [Compound 500, 3-(3-Fluoro-phenylamino)-6,7-dimethoxy-4H-indeno[1,2-c]pyrazole-1-carboxylic acid 4-fluoro-phenyl ester]	80.5	492
COc1cc2c(cc1OC)-c1c(c(Nc3cccc(F)c3)nn1C(=O)Oc1ccc(Cl)cc1)C2 [Compound 501, 3-(3-Fluoro-phenylamino)-6,7-dimethoxy-4H-indeno[1,2-c]pyrazole-1-carboxylic acid 4-chloro-phenyl ester]	90	96
COc1cc2c(cc1OC)-c1nn(C(=O)Oc3ccc(F)cc3)c(Nc3cccc(F)c3)c1C2 [Compound 503, 3-(3-Fluoro-phenylamino)-6,7-dimethoxy-4H-indeno[1,2-c]pyrazole-2-carboxylic acid 4-fluoro-phenyl ester]	103	45.1
CCOc1cccc(Nc2[nH]nc3c2C(C)c2cc(OCC)c(OCC)cc2-3)c1 (stereo not shown) [Compound 504, (6,7-Diethoxy-4-methyl-2,4-dihydro-indeno[1,2-c]pyrazol-3-yl)-(3-ethoxy-phenyl)-amine]	101	142
CCOc1cccc(Nc2[nH]nc3c2C(CC)c2cc(OC)c(OC)cc2-3)c1 (stereo not shown) [Compound 505, (3-Ethoxy-phenyl)-(4-ethyl-6,7-dimethoxy-2,4-dihydro-indeno[1,2-c]pyrazol-3-yl)-amine]	97	134
CCOC(=O)Cn1nc2c(c1Nc1cccc(F)c1)Cc1cc(OC)c(OC)cc1-2 [Compound 510, [3-(3-Fluoro-phenylamino)-6,7-dimethoxy-4H-indeno[1,2-c]pyrazol-2-yl]-acetic acid ethyl ester]	57	26600
CCC1c2cc(OC)c(OC)cc2-c2n[nH]c(Nc3cccc(OC)c3)c21 (stereo not shown) [Compound 512, (4-Ethyl-6,7-dimethoxy-2,4-dihydro-indeno[1,2-c]pyrazol-3-yl)-(3-methoxy-phenyl)-amine]	92	183
COc1cc2c(cc1OC)-c1c(c(Nc3cccc(F)c3)nn1C(=O)Oc1ccccc1Cl)C2 [Compound 513, 3-(3-Fluoro-phenylamino)-6,7-dimethoxy-4H-indeno[1,2-c]pyrazole-1-carboxylic acid 2-chloro-phenyl ester]	86	773
CCC1c2cc(OC)c(OC)cc2-c2c1c(Nc1cccc(Br)c1)nn2C(=O)COC (stereo not shown) [Compound 514, 1-[3-(3-Bromo-phenylamino)-4-ethyl-6,7-dimethoxy-4H-indeno[1,2-c]pyrazol-1-yl]-2-methoxy-ethanone]	85	240
CCC1c2cc(OC)c(OC)cc2-c2nn(C(=O)COC)c(Nc3cccc(Br)c3)c21 (stereo not shown) [Compound 515, 1-[3-(3-Bromo-phenylamino)-4-ethyl-6,7-dimethoxy-4H-indeno[1,2-c]pyrazol-2-yl]-2-methoxy-ethanone]	90	136
CCC1c2cc(OC)c(OC)cc2-c2nn(C(=O)COCc3ccccc3)c(Nc3cccc(Br)c3)c21 (stereo not shown) [Compound 518, 2-Benzyloxy-1-[3-(3-bromo-phenylamino)-4-ethyl-6,7-dimethoxy-4H-indeno[1,2-c]pyrazol-2-yl]-ethanone]	92.5	184

The remaining lines, values ahead:

inhibition at 10 µM [%]	IC50 [nM]	SMILES
8		COc1cc2c(cc1OC)-c1c(c(Nc3cccc(F)c3)nn1C(=O)c1c(F)cccc1F)C2 [Compound 480, (2,6-Difluoro-phenyl)-[3-(3-fluoro-Phenylamino)-6,7-dimethoxy-4H-indeno[1,2-c]pyrazol-1-yl]-methanone]
59	3760	COc1cc2c(cc1OC)-c1c(c(Nc3cccc(F)c3)nn1C(=O)c1ccccc1F)C2 [Compound 481, (2-Fluoro-phenyl)-[3-(3-fluoro-phenylamino)-6,7-dimethoxy-4H-indeno[1,2-c]pyrazol-1-yl]-methanone]
87	218	COc1cc2c(cc1OC)-c1c(c(Nc3cccc(F)c3)nn1CC(C)=O)C2 [Compound 484, 1-[3-(3-Fluoro-phenylamino)-6,7-dimethoxy-4H-indeno[1,2-c]pyrazol-1-yl]-propan-2-one]
83	1540	COc1cc2c(cc1OC)-c1c(c(Nc3cccc(F)c3)nn1C(=O)c1ccc(Cl)cc1)C2 [Compound 494, (4-Chloro-phenyl)-[3-(3-fluoro-phenylamino)-6,7-dimethoxy-4H-indeno[1,2-c]pyrazol-1-yl]-methanone]
88.5	13.6	COc1cc2c(cc1OC)-c1c(c(Nc3cccc(F)c3)nn1COC(C)=O)C2 [Compound 496, Acetic acid 3-(3-fluoro-phenylamino)-6,7-dimethoxy-4H-indeno[1,2-c]pyrazol-1-ylmethyl ester]
60.5	54000	COc1cc2c(cc1OC)-c1c(c(Nc3cccc(F)c3)nn1CC(C)O)C2 (stereo not shown) [Compound 502, 1-[3-(3-Fluoro-phenylamino)-6,7-dimethoxy-4H-indeno[1,2-c]pyrazol-1-yl]-propan-2-ol]
97	29.4	CNC(=O)CCCC(=O)n1nc(Nc2cccc(F)c2)c2c1-c1cc(OC)c(OC)cc1C2 [Compound 506, 5-[3-(3-Fluoro-phenylamino)-6,7-dimethoxy-4H-indeno[1,2-c]pyrazol-1-yl]-5-oxo-pentanoic acid methylamide]
30.5		COC(=O)Cn1nc(Nc2cccc(F)c2)c2c1-c1cc(OC)c(OC)cc1C2 [Compound 509, [3-(3-Fluoro-phenylamino)-6,7-dimethoxy-4H-indeno[1,2-c]pyrazol-1-yl]-acetic acid methyl ester]
51	12500	CCOC(=O)Cn1nc(Nc2cccc(F)c2)c2c1-c1cc(OC)c(OC)cc1C2 [Compound 511, [3-(3-Fluoro-phenylamino)-6,7-dimethoxy-4H-indeno[1,2-c]pyrazol-1-yl]-acetic acid ethyl ester]
68.5	10000	COc1cc2c(cc1OC)-c1c(c(Nc3cccc(F)c3)nn1C(=O)NCCN)C2 [Compound 516, 3-(3-Fluoro-phenylamino)-6,7-dimethoxy-4H-indeno[1,2-c]pyrazole-1-carboxylic acid (2-amino-ethyl)-amide]
75.5	1790	COc1cc2c(cc1OC)-c1c(c(Nc3cccc(F)c3)nn1C(=O)NCCN(C)C)C2 [Compound 517, 3-(3-Fluoro-phenylamino)-6,7-dimethoxy-4H-indeno[1,2-c]pyrazole-1-carboxylic acid (2-dimethylamino-ethyl)-amide]
